Converted amounts (≈) assume the structure as drawn. Read-outs that look alike come from different tables or passages of the source.
Key:
[1] = system: Plasmodium berghei (strain ANKA); assay: activity against Plasmodium berghei in vivo (infected mice); details: mice; for ED50: single administration po, dose reducing average erythrocyte infection rate by 50%, read-out: ED50 (po); for inhibition in vivo at 10 mg/kg: 48 hours after treatment (D+3)
Method: Test method for the determination of the activity against Plasmodium berghei in vivo
The preparations according to the present invention were tested on mice infected with malaria pathogens (Plasmodium berghei). Male albino mice (IBM:MORO(SPF), FUELLINSDORF) weighing about 25 g were used as the test animals. They were kept in climatized rooms at 21°-22° C. in groups of 5 animals per cage. They received ad libitum a diet feed with a low PABA content ("NAFAG FUTTER" No. 9009 PAB-45, PABA content 45 mg/kg) and drinking water. On the first day of the test (D0) the test animals were infected with Plasmodium berghei (strain ANKA). For this there was used heparinized blood of a donor mouse with about 30% parasitemia, which was diluted with physiological saline such that it contains 10^8 parasitized erythrocytes per ml. 0.2 ml of this suspension was injected intravenously (i.v.) into the mice to be treated and into the control mice. In untreated control animals the parasitemia normally reaches 30-40% on the third day after the infection (D+3) and the test animals die between days +5 and +7.
The substances to be tested were dissolved or suspended in distilled water or in a mixture of 7% Tween 80, 3% alcohol (96%) and water. Usually, 0.25 ml of this solution or suspension was administered once subcutaneously and perorally to groups of 5 test animals. Treatment was effected 24 hours after the infection. 10 control animals were treated in the same manner with solvent or suspension medium per test.
All substances were tested in a first test in a single dosage of 10 mg/kg. Only those substances which in this test (10 mg/kg) had shown a parasitaemia reduction of 90% were used for the titration.
48 hours after the treatment (D+3), blood smears were prepared from all animals using blood from tail veins and were stained with Giemsa. The average erythrocyte infection rate (parasitemia in %) in the control groups as well as in the groups which had been treated with the test compounds was determined by counting under a microscope. The difference in the average values of the infection rates of control group (100%) and treated groups was calculated and expressed as a percentage reduction (GI %). The ED50 or ED90 was determined mathematically by means of the JMP programme (nonlinear fit). The ED50 (ED90) in mg/kg is that dose which after single administration reduces the average erythrocyte infection rate by 50% (90%) in comparison to the control group.
Table 2 below contains data with respect to the activity measured against Plasmodium berghei in mice: GI % is the percentage reduction in the parasitemia after a single dose of 10 mg/kg of the test substance administered perorally (po) or subcutaneously (sc); ED50 and ED90 are the effective doses of the test substance administered perorally or subcutaneously.

[2] = system: Plasmodium falciparum, chloroquine-sensitive strain HB3; assay: activity against P. falciparum in vitro, strain HB3; format: cell-based; details: chloroquine-sensitive strain HB3, 48 h-72 h, read-out: IC50 (50% growth inhibition)
Procedure, shortened: (§1)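 Asynchronous cultures, human A+ RBC, 0.7% parasitemia/2.5% Hct; RPMI 1640 + 25 mM HEPES, 25 mM NaHCO3, 10% human serum; 37° C, 3% O2, 4% CO2, 93% N2; 48 h-72 h. ^3H-hypoxanthine uptake; IC50 via logit regression.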

[3] = system: Plasmodium falciparum, chloroquine-resistant strain RFCR3; assay: activity against P. falciparum in vitro, strain RFCR3; format: cell-based; details: chloroquine-resistant strain RFCR3, 48 h-72 h, read-out: IC50 (50% growth inhibition)
Procedure, shortened: as §1

[4] = system: Plasmodium falciparum, chloroquine-resistant strain ItG2 F6; assay: activity against P. falciparum in vitro, strain ItG2 F6; format: cell-based; details: chloroquine-resistant strain ItG2 F6, 48 h-72 h, read-out: IC50 (50% growth inhibition)
Procedure, shortened: as §1

[5] = system: Plasmodium falciparum, chloroquine-resistant strain W2; assay: activity against P. falciparum in vitro, strain W2; format: cell-based; details: chloroquine-resistant strain W2, 48 h-72 h, read-out: IC50 (50% growth inhibition)
Procedure, shortened: as §1

[6] = system: Plasmodium falciparum, chloroquine-resistant strain Indo; assay: activity against P. falciparum in vitro, strain Indo; format: cell-based; details: chloroquine-resistant strain Indo, 48 h-72 h, read-out: IC50 (50% growth inhibition)
Procedure, shortened: as §1

[7] = system: Plasmodium falciparum, chloroquine-sensitive strain FCH5C2; assay: activity against P. falciparum in vitro, strain FCH5C2; format: cell-based; details: chloroquine-sensitive strain FCH5C2, 48 h-72 h, read-out: IC50 (50% growth inhibition)
Procedure, shortened: as §1

[8] = system: Plasmodium falciparum, chloroquine-resistant strain K1; assay: activity against P. falciparum in vitro, strain K1; format: cell-based; details: Plasmodium falciparum; chloroquine-resistant strain K1; 48 h-72 h; read-out: IC50 (50% growth inhibition)
Procedure, shortened: as §1

[9] = system: Plasmodium falciparum, chloroquine-resistant strain W2 Mef; assay: activity against P. falciparum in vitro, strain W2 Mef; format: cell-based; details: 48 h-72 h, read-out: IC50 (50% growth inhibition)
Procedure, shortened: as §1

[10] = system: Plasmodium falciparum, chloroquine-sensitive strain NF54; assay: activity against P. falciparum in vitro, strain NF54; format: cell-based; details: Plasmodium falciparum; chloroquine-sensitive strain NF54; 48 h-72 h; read-out: IC50 (50% growth inhibition)
Procedure, shortened: as §1

[11] = system: Plasmodium falciparum, chloroquine-resistant strain 7G8; assay: activity against P. falciparum in vitro, strain 7G8; format: cell-based; details: chloroquine-resistant strain 7G8, 48 h-72 h, read-out: IC50 (50% growth inhibition)
Procedure, shortened: as §1

[12] = system: Plasmodium falciparum, chloroquine-sensitive strain Ro7 3; assay: activity against P. falciparum in vitro, strain Ro7 3; format: cell-based; details: chloroquine-sensitive strain Ro7 3, 48 h-72 h, read-out: IC50 (50% growth inhibition)
Procedure, shortened: as §1

[13] = system: Plasmodium falciparum, chloroquine-sensitive strain RFMEF3; assay: activity against P. falciparum in vitro, strain RFMEF3; format: cell-based; details: chloroquine-sensitive strain RFMEF3, 48 h-72 h, read-out: IC50 (50% growth inhibition)
Procedure, shortened: as §1

[14] = single dose 10 mg/kg po, read-out: GI % at 10 mg/kg (po): percentage reduction in the parasitemia
[15] = single dose 10 mg/kg sc, read-out: GI % at 10 mg/kg (sc): percentage reduction in the parasitemia

Structure (SMILES) | ED50 [1] [mg/kg] | inhibition in vivo at 10 mg/kg [1, 14] [%] | inhibition in vivo at 10 mg/kg [1, 15] [%] | IC50 [2] [µg/mL] | IC50 [3] [µg/mL] | IC50 [4] [µg/mL] | IC50 [5] [µg/mL] | IC50 [6] [µg/mL] | IC50 [7] [µg/mL] | IC50 [8] [µg/mL] | IC50 [9] [µg/mL] | IC50 [10] [µg/mL] | IC50 [11] [µg/mL] | IC50 [12] [µg/mL] | IC50 [13] [µg/mL]
Clc1ccc2c(NC3CCN(Cc4ccccc4)CC3)ccnc2c1 [Example 19, (1-Benzyl-piperidin-4-yl)-(7-chloro-quinolin-4-yl)-amine] | 5.3 | 99 | 99.6 | 0.004 (≈ 0.0114 µM) | 0.01 (≈ 0.0284 µM) | 0.006 (≈ 0.0171 µM) | 0.01 (≈ 0.0284 µM) | 0.007 (≈ 0.0199 µM) | 0.005 (≈ 0.0142 µM) | 0.009 (≈ 0.0256 µM) | 0.011 (≈ 0.0313 µM) | 0.007 (≈ 0.0199 µM) | 0.007 (≈ 0.0199 µM) | 0.003 (≈ 0.00853 µM) | 0.005 (≈ 0.0142 µM)
CC1CC(C)(C)C(CNc2ccnc3cc(Cl)ccc23)C1N (centres unmarked) [Example 20, (5-Amino-2,2,4-trimethyl-cyclopentylmethyl)-(7-chloro-quinolin-4yl)-amine] | 4.4 | 99.9 | 99.9 | 0.004 (≈ 0.0126 µM) | 0.014 (≈ 0.044 µM) | 0.007 (≈ 0.022 µM) | 0.011 (≈ 0.0346 µM) | 0.008 (≈ 0.0252 µM) | 0.007 (≈ 0.022 µM) | 0.01 (≈ 0.0315 µM) | 0.014 (≈ 0.044 µM) | 0.003 (≈ 0.00944 µM) | 0.015 (≈ 0.0472 µM) | 0.007 (≈ 0.022 µM) | 0.004 (≈ 0.0126 µM)
C=CCN(C)CCNc1ccnc2cc(Cl)ccc12 [Example 33, N1 -Allyl-N2-(7-chloro-quinolin-4-yl)-N1-methyl-ethane-1,2-diamine] | 5.9 | 97 | 97 | 0.015 (≈ 0.0544 µM) | 0.018 (≈ 0.0653 µM) | 0.009 (≈ 0.0326 µM) | 0.021 (≈ 0.0761 µM) | 0.014 (≈ 0.0508 µM) | 0.015 (≈ 0.0544 µM) | 0.014 (≈ 0.0508 µM) | 0.015 (≈ 0.0544 µM) | 0.008 (≈ 0.029 µM) | 0.018 (≈ 0.0653 µM) | 0.01 (≈ 0.0363 µM) | 0.016 (≈ 0.058 µM)
CN(C)C(C)(C)CNc1ccnc2cc(Cl)ccc12 [Example 33b, N1-(7-Chloro-quinolin-4-yl)-2,N2,N2-trimethyl-propane-1,2-diamine] |  | 99.9 | 99.9 | 0.012 (≈ 0.0432 µM) | 0.01 (≈ 0.036 µM) | 0.017 (≈ 0.0612 µM) | 0.009 (≈ 0.0324 µM) | 0.009 (≈ 0.0324 µM) | 0.011 (≈ 0.0396 µM) | 0.017 (≈ 0.0612 µM) | 0.018 (≈ 0.0648 µM) | 0.008 (≈ 0.0288 µM) | 0.018 (≈ 0.0648 µM) | 0.004 (≈ 0.0144 µM) | 0.008 (≈ 0.0288 µM)

— US5596002A, “Method of treating chloroquine-resistant malaria with aminoquinoline derivatives” (Hoffmann-La Roche Inc., priority 1993, dated 1997)
